Results on one molecule are retold here after patent publication US6559305B1, “Linezolid—crystal form II” (Pharmacia & Upjohn Company, priority 2000, dated 2003).

The nature of this data set: relative stability of linezolid crystal forms. Type of data set: physicochemical. The conditions noted are these: temperature below about 85° (degrees Centigrade).

In the case of `CC(=O)NC[C@H]1CN(c2ccc(N3CCOCC3)c(F)c2)C(=O)O1` [Crystal Form II, (S)-N-[[3-[3-fluoro-4-(4-morpholinyl)phenyl]-2-oxo-5-oxazolidinyl]methyl]acetamide], the “stability of the crystal form relative to other solid forms (e.g. Form I)” value is “most stable form below about 85°”.
